Source: article PMC11514837 (Toxicological Sciences, 2024)
Where two headings read alike, the source gives them in different places.

Key:
zebrafish embryos [1] = test: Zebrafish developmental toxicity screening, wild-type fish; type: in vivo, zebrafish (Danio rerio); details: for concentration up to which not toxic in zebrafish: data not shown; for EC80: nominal concentration causing morphologic malformations in 80% of WT zebrafish
human AHR [2] = molecular target: T1, human AHR (Homo sapiens, UniProt P35869); details: exposures up to 30 μM
T1 sequence (P35869 11-848): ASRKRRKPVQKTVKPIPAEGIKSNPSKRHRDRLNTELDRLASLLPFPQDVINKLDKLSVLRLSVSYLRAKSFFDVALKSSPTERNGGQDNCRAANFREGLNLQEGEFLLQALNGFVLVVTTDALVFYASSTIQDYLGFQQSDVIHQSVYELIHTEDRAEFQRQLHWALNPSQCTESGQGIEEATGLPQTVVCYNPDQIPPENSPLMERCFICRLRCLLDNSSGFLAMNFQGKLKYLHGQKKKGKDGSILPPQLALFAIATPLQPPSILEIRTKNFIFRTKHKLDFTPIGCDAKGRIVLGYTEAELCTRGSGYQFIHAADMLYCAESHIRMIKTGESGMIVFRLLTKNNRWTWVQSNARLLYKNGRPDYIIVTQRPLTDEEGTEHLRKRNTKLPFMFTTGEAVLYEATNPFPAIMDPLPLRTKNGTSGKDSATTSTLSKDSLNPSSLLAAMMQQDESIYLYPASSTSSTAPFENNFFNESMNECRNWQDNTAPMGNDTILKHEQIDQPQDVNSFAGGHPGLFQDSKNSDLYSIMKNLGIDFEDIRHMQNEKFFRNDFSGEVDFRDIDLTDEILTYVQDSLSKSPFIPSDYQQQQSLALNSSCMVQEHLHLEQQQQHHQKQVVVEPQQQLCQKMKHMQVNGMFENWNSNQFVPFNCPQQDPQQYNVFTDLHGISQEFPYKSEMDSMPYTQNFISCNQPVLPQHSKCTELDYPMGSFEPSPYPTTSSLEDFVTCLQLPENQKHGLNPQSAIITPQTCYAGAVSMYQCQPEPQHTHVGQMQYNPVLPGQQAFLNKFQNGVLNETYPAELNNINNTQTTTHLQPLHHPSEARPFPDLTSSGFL

zebrafish Ahr2 = molecular target: T2, zebrafish Ahr2 (Danio rerio, UniProt Q9YGV3); type: cell-based; details: exposures up to 30 μM
T2 sequence (Q9YGV3 1-1027): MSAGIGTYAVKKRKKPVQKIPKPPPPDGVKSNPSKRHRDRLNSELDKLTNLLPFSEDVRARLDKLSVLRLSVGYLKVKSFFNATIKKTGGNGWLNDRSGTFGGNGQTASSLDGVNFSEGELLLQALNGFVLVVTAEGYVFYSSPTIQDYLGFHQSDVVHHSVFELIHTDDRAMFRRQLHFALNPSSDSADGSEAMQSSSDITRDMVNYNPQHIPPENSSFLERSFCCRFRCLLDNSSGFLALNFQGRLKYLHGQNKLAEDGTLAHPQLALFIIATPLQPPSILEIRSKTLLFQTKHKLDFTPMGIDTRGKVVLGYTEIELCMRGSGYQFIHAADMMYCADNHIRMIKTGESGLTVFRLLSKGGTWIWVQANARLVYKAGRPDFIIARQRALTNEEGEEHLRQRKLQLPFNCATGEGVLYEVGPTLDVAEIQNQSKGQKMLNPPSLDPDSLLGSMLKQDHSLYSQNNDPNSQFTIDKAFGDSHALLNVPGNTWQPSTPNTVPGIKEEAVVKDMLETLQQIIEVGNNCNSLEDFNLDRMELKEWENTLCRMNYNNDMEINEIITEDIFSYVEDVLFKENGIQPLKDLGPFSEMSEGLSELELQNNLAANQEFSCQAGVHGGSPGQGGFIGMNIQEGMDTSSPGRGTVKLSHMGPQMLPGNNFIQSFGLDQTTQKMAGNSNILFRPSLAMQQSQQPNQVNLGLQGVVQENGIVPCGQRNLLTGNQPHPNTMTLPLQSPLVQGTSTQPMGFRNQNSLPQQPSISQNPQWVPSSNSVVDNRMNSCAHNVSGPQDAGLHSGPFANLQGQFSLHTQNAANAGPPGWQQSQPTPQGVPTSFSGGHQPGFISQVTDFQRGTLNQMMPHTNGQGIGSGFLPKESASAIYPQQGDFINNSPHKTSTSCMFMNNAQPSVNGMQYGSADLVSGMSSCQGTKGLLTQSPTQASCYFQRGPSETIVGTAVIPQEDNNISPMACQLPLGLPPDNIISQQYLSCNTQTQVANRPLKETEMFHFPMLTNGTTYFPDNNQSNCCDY

[3] = tested on: cyp1a^cms-gfp zebrafish (EGFP under cyp1a promotor)
[4] = Larval metabolite analysis by LC-IM-MS; details: zebrafish exposed to 26 µM retene
[5] = tested on: Ahr2 knockout (ahr2^hu3335) fish; details: ref Scott et al. 2011; Wilson et al. 2022; cited from earlier work
zebrafish embryos [6] = test: Window of susceptibility developmental toxicity exposures; type: in vivo
[7] = Retene body burden in zebrafish tissue; type: in vivo
human AHR [8] = molecular target: T1, human AHR
Ahr2 = details: ref Billiard et al. 2002; cited from earlier work
cyp1a^osu5 zebrafish = type: in vivo; details: TCDD, cyp1a^osu5 fish; unit not given
cyp1a^osu4 zebrafish = type: in vivo; details: TCDD, cyp1a^osu4 fish, 1 h exposure at 6 to 8 hpf
Cyp1b1^wh4 zebrafish = type: in vivo; details: TCDD

Cc1cccc2c1ccc1ccccc12 [1-methylphenathrene, 1-methylphenanthrene]
concentration up to which not toxic in zebrafish (zebrafish embryos [1]): > 100 µM

O=C1c2ccccc2C(=O)c2c1ccc1ccccc21 [Benzanthraquinone]
AHR activation in human HuH-7 luciferase reporter cells (human AHR [2]): direct AHR activators
Ahr2 activation in zebrafish ZF-4 luciferase reporter cells (zebrafish Ahr2): direct AHR activators

c1ccc2c(c1)cc1ccc3cccc4ccc2c1c34 [Benzo[a]pyrene]
AHR activation in human HuH-7 luciferase reporter cells (human AHR [2]): activator
Ahr2 activation in zebrafish ZF-4 luciferase reporter cells (zebrafish Ahr2): activator

c1ccc2c(c1)-c1cccc3c1c-2cc1ccccc13 [Benzo[b]fluoranthene]
AHR activation in human HuH-7 luciferase reporter cells (human AHR [2]): direct AHR activators
Ahr2 activation in zebrafish ZF-4 luciferase reporter cells (zebrafish Ahr2): direct AHR activators
concentration up to which not toxic in zebrafish (zebrafish embryos [1]): > 100 µM

c1ccc2c3c(ccc2c1)-c1cccc2cccc-3c12 [Benzo[j]fluoranthene]
AHR activation in human HuH-7 luciferase reporter cells (human AHR [2]): direct AHR activators
Ahr2 activation in zebrafish ZF-4 luciferase reporter cells (zebrafish Ahr2): direct AHR activators
EC80 (zebrafish embryos [1]): could not be determined

c1ccc2cc3c(cc2c1)-c1cccc2cccc-3c12 [Benzo[k]fluoranthene, Benzo(k)fluoranthene]
EGFP expression at 23 hpf / early hours ([3]; cyp1a^cms-gfp fish, retene 26 μM, benzo[k]fluoranthene 8.9 μM): strong widespread EGFP expression
AHR activation in human HuH-7 luciferase reporter cells (human AHR [2]): direct AHR activators
Ahr2 activation in zebrafish ZF-4 luciferase reporter cells (zebrafish Ahr2): direct AHR activators

Cc1cccc2c1ccc1cc(C(C)C)ccc12 [Retene, 1-methyl-7-isopropylphenanthrene]
retene metabolites in tissue extracts at 12 and 24 hpf [4]: No retene metabolites were detected
EGFP expression at 23 hpf / early hours ([3]; zebrafish, in vivo): control-like EGFP expression
AHR activation in human HuH-7 luciferase reporter cells (human AHR [2]): minimal reporter activity
Ahr2 dependence of toxicity in developing zebrafish [5]: Ahr2 dependent toxicity
BMC50 (zebrafish embryos [6]; exposure window 6 to 48 hpf, screened at 120 hpf): 52 ± 4 µM
developmental toxicity response (zebrafish embryos [6]; exposure window 48 to 120 hpf): little response
Ahr2 activation in zebrafish ZF-4 luciferase reporter cells (zebrafish Ahr2): no significant activation
Ahr2 activation in zebrafish ZF-4 luciferase reporter cells (zebrafish Ahr2; listed as retene): do not respond
increase in body burden from 12 to 24 hpf ([7]; 30 μM retene from 6 hpf): greater than 3 fold
tissue burden at 48 hpf ([7]; 30 μM retene from 6 hpf): decreased to near-baseline
24 hpf body burden ([7]; static exposure to 30 μM retene from 6 hpf): 31 ng/fish
effect of supplementation with human liver s9 on reporter activity (human AHR [8]): did not lead to an increase in reporter activity
times less strong at binding Ahr2 than 1-methylphenanthrene (Ahr2): 3 ×
times less strong at binding Ahr2 than benzo[b]fluoranthene (Ahr2): 73 ×

Clc1cc2c(cc1Cl)Oc1cc(Cl)c(Cl)cc1O2 [TCDD, 2,3,7,8-Tetrachlorodibenzo-p-dioxin]
BMC (cyp1a^osu5 zebrafish): 0.56 ± 0.13
BMC50 (cyp1a^osu4 zebrafish): 0.41 ± 0.07 nM
change in toxicity versus 5D fish (Cyp1b1^wh4 zebrafish): no change in toxicity

O=c1c2ccccc2oc2ccccc12 [Xanthone]
EC80 (zebrafish embryos [1]): 52 µM
